Measurements reported in US20050191252A1, “Skin beautification cosmetic system using iontophoresis device, ultrasonic facial stimulator, and cosmetic additive” (priority 2004, published 2005).
Like-named read-outs stand apart in the source and are kept apart here.

How the values were obtained:
[1] = rat, in vivo
Protocol: The present inventor introduced a 0.1% diluted solution of C-ascorbic acid (hereinafter referred to as Vitamin C) into the back skin of a rat by simple external application and iontophoresis to compare osmosis of vitamin C using a scintillation counter and autoradiography.
A 0.1% vitamin C solution was applied to the back skin of a hairless rat for 20 seconds by iontophoresis or for 10 minutes by simple external application. Tissue samples were collected at prescribed intervals (Samples of iontophoresis application: control, 0.5 h, 1 h, 2 h, 3 h, and 6 h; samples of simple external application: control, 1 h, 2 h, 3 h, and 6 h). Each collected sample was cut into two pieces, one of which was separated into epidermis and dermis for use as a scintillation counter sample. A lyophilized section was prepared from the other piece of the sample and developed for autoradiography analysis. The vitamin C concentration in each tissue was determined using IR analysis.

[2] = Vitamin C osmosis into the human skin (Test Example 1), iontophoretic introduction, HPLC of epidermis and dermis; settings: human thigh skin, five hours after five minutes iontophoretic introduction
Protocol: <Experiment Procedure> • (1) Vitamin C was iontophoretically introduced for five minutes. • (2) After five hours, 5 mm of the skin was punched, separated into epidermis and dermis, and freeze dried. • (3) The Vitamin C concentration in the epidermis and dermis was determined by HPLC. • 1) The freeze dry samples were dissolved in 500 □1 of a moving layer solvent. • 2) The solution was ultrasonically treated for 10 minutes, • 3) filtered through a 0.2 mm filter, and • 4) subjected to HPLC measurement.
Moving layer: A 0.08 M CH3COOH—CH3COONa buffer solution (pH 5.0) containing 2.8 mM Mn-hexyl amine, 0.1 mM disodium edetate, and 2% methanol. • Measuring amount: 20 □1 • Flow rate: 0.8 ml/min. • Wavelength: 254 nm • Column: ODS column oven: 40° C.

[3] = Vitamin C osmosis comparison using autoradiography (Test Example 3); format: in vivo, hairless rat
From the text: Vitamin C osmosis comparison using autoradiography.
These figures (photographs) display a cross-section of rat skin tissue, wherein black dots in the epidermis and dermis indicate vitamin C.

osmosis by iontophoresis application relative to simple external application ([1]; hairless): about 30 times
time at which concentration reached maximum ([1]; hairless): 0.5 h
time at which concentration reached maximum [1]: one
Dermis (ppm), Vitamin C concentration [2]: 0.05 ppm
Epidermis (ppm), Vitamin C concentration [2]: 0.02 ppm
SMILES: O=C1O[C@H]([C@@H](O)CO)C(O)=C1O [Vitamin C, C-ascorbic acid]
penetration from the epidermis into the dermis (autoradiography) ([3]; iontophoresis application, rat back skin (FIG. 7)): started to penetrate at 0.5 hour and more abundantly after one hour
penetration from the epidermis into the dermis (autoradiography) ([3]; simple external application, rat back skin (FIG. 6)): progressively penetrated from the epidermis into the dermis over time
